Target: protein disulfide isomerase (PDI, PDIA1) (Homo sapiens, UniProt P07237)
Assay: surface plasmon resonance
Assay type: binding

Sequence of protein disulfide isomerase (PDI, PDIA1) (P07237 18-508): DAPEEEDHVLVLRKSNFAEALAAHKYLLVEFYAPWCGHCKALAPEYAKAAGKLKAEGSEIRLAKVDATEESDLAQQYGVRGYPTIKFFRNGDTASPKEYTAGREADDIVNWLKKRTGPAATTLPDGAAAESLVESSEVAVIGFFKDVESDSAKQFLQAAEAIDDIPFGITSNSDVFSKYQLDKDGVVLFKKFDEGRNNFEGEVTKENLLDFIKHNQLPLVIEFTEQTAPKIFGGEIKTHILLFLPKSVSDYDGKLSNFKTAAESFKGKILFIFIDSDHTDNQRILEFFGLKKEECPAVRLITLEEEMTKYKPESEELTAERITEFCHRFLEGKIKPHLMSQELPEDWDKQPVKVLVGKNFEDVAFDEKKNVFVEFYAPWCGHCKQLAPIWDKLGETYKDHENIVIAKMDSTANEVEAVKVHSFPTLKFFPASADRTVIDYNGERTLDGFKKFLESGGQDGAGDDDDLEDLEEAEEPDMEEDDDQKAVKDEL

Kd: 3.3 nM
Structure (SMILES): Cc1c(-c2ccc(O)cc2)n(Cc2ccc(OCCN3CCCCCC3)cc2)c2ccc(O)cc12 [BAZ, bazedoxifene]

From paper PMC12060420 (Cell Communication and Signaling : CCS, 2025)
